Patent US11793208B2, “Antimicrobial treatment of animal carcasses and food products” (EVONIK OPERATIONS GMBH, priority 2017, dated 2023)
Each block holds one compound with its values, some of them ahead of it.

Assays:
[1] = Concentration of PAA and H2O2 in the presence of alkaline modifiers; format: physicochemical; details: for H2O2, ppm in 1 hour / PAA, ppm in 1 hour: after 1 hour at 4° C.; for H2O2, ppm Initial / PAA, ppm Initial: immediately after preparation; for effect of alkaline modifier on concentration of both PAA and hydrogen peroxide: PAA solution with the alkaline modifier, 1 hour at 4° C.
[2] = system: Aerobic Plate Count (APC); experiment: Microbial load of rinses from treated poultry offal: Aerobic Plate Count; format: cell-based; details: 8-10 seconds
Protocol: (§1) For offal treatments, mixtures of organic acids and peroxyacids were prepared by weighing the components and dissolving them in water to reach the desired concentration. Peracetic acid (PAA) solutions were prepared by diluting VigorOx® (PeroxyChem LLC) with tap water to obtain the target concentration.
(§2) The pH of the aseptic compositions was adjusted using a 25% aqueous solution of NaOH, solid sodium carbonate, or sodium bicarbonate. The amount of active oxygen was confirmed by titration on an autotitrator and by using Chemetrics test kits K-7913F and K-5543.
(§3) Fresh poultry livers and gizzards, and lamb livers and kidneys were purchased untreated and fresh (not frozen) from local suppliers. All offal was kept refrigerated before testing.
(§4) Poultry offal was collected into a single large plastic bag. A gloved hand was used to remove either 6 whole, bi-lobed livers or 12 gizzards and place them in 350 mL of either water, an 840 ppm PAA solution, or an 840 ppm PAA solution that had been adjusted to a pH of 10.2 with sodium hydroxide and used within 5 minutes of pH adjustment. The samples were incubated in the solutions for 8-10 seconds. After treatment, a freshly gloved hand was used to remove 2 livers (or 4 gizzards) into a small plastic strainer. The treated samples were allowed to drain for 30 to 60 seconds to remove excess moisture. Each set of 2 livers (or 4 gizzards) was then placed into 100 mL peptone buffer and rinsed in the peptone for 30 seconds. A few milliliters of rinsate were removed by transfer pipette and kept on ice for dilution and plating. The plates were incubated for 24 to 48 hours at 35° C. and counted manually to determine the Aerobic Plate Count (APC) and the Enterobacteriaceae count (EBC). The color of the treated samples was noted by visual inspection.

Enterobacteriaceae = experiment: Microbial load of rinses from treated poultry offal: Enterobacteriaceae count; format: cell-based; details: 8-10 seconds
Protocol: as §1, §2, §3, §4

[3] = system: Aerobic Plate Count (APC); experiment: Microbial reduction after PAA treatment of chicken livers: Aerobic Plate Count; format: cell-based; details: PAA 1000 ppm
Protocol: (§5) Six chicken livers were added to 500 mL of peracetic acid solution, and incubated room temperature for 5, 15, or 30 seconds. Then the livers were removed and quickly added individually to 100 mL Buffered Peptone Water in a sterile cup, 1 liver per cup. Cups were manually shaken for 30 seconds and the liquid was sampled for plating. Sample rinses were serially diluted using Butterfield's buffer and plated on Aerobic Plate Count (APC) and Escherichia coli Coliform (ECC) plates. The plates were incubated for 24-48 hours at a temperature of 35° C., and then counted manually. Log10 calculations were performed to obtain the Log10 CFU/mL of the solutions at each time point.

[4] = system: Escherichia coli Coliform (ECC); experiment: Microbial reduction after PAA treatment of chicken livers: Escherichia coli Coliform plates; format: cell-based; details: PAA 1000 ppm
Protocol: as §5

[5] = system: Aerobic Plate Count (APC); experiment: Microbial reduction after PAA treatment of lamb livers: Aerobic Plate Count; format: cell-based; details: PAA 100 ppm
[6] = pH of tap water containing acids and alkaline modifiers, before and after contact with chicken breast; format: physicochemical; details: for pH after 1 hour: 1 hour at 4° C. with chicken breast; for pH initial: tap water 4° C., before addition of poultry
Protocol: Organic acids were added to plastic containers containing 5.0 L of tap water at 4° C. The alkaline modifiers, NaOH, Na2CO3, Na2CO3.1.5H2O2, Na3PO4, were added to the solution in the plastic container in an amount sufficient to bring pH to about 7-9 depending upon the pKa of the organic acid. Then, 5 pieces of chicken breast weighing about 200 gram each were added to each container. The solution was then incubated for one hour at 4° C., with periodic stirring. The pH was measured immediately before the addition of the poultry and then after the 1 hour incubation at 4° C.

[7] = system: Salmonella enterica ATCC 14028; experiment: Salmonella suspension testing method; format: cell-based; details: for Average Log10 reduction: 60 min treatment, 5% organic load; for kill of Salmonella: organic acid with addition of percarbonate, relatively high pH
Protocol: The effect of organic acids and alkaline modifiers on microbial viability was assayed using a Salmonella suspension testing method as described below. […] A 1:5 dilution of organism was prepared in Butterfield's buffer. This dilution was added in equal parts to sterile fetal bovine serum in order to produce a working inoculum containing a 50% organic load. […] Then, a 1 mL aliquot of working inoculum was added to the test solution and vortexed briefly to mix. A 1 mL aliquot was removed from the mixture at 1, 30, and 60 minutes following inoculation, and immediately added to a 9 mL volume of Letheen neutralizing broth. This broth was then vortex mixed, diluted serially into Butterfield's buffer, and the dilutions plated on 3[…] Aerobic Count Plates. The plates were incubated for 24-48 hours at 35° C., and then counted manually. Log 10 calculations were performed to obtain the Log 10 CFU/mL of the solutions at each time point.

[8] = Gizzards, 840 ppm PAA adjusted to pH 10.2 with sodium hydroxide
[9] = Livers, 840 ppm PAA adjusted to pH 10.2 with sodium hydroxide
[10] = alkaline modifier Na2CO3, pH 8.5, treatment time 5 seconds
[11] = alkaline modifier NaHCO3, pH 7.5, treatment time 15 seconds
[12] = alkaline modifier NaHCO3, pH 7.5, treatment time 30 seconds
[13] = alkaline modifier NaOH, pH 7.5, treatment time 5 seconds
[14] = no alkaline modifier, pH 3.1, treatment time 5 seconds
[15] = no alkaline modifier, pH 3.1, treatment time 15 seconds
[16] = Citric 2,500 ppm, alkaline modifier Na2CO3•1.5H2O2
[17] = Citric 5,000 ppm, alkaline modifier Na2CO3•1.5H2O2
[18] = additive Na5P3O10 125 ppm, initial PAA 10.4 ppm
[19] = additive Na5P3O10 125 ppm, initial PAA 30.1 ppm
[20] = Glycolic 250 ppm, alkaline modifier Na2CO3
[21] = Glycolic 250 ppm, alkaline modifier NaOH
[22] = Glycolic 500 ppm, no alkaline modifier

SMILES: CC(=O)OO [PAA, Peracetic acid]
H2O2, ppm in 1 hour ([1]; no additive (0 ppm)): 11 ppm
PAA, ppm in 1 hour ([1]; no additive (0 ppm)): 24 ppm
H2O2, ppm Initial ([1]; no additive (0 ppm)): 11 ppm
PAA, ppm Initial ([1]; no additive (0 ppm)): 25 ppm
Log APC [2, 8]: 0.85
Log APC ([2]; Gizzards, 840 ppm PAA, pH 3.4): 0.70
Log APC [2, 9]: 0.30
Log APC ([2]; Livers, 840 ppm PAA, pH 3.4): 0.00
Log EBC (Enterobacteriaceae; [8]): 0.00
Log EBC (Enterobacteriaceae; Gizzards, 840 ppm PAA, pH 3.4): 0.00
Log EBC (Enterobacteriaceae; [9]): 0.00
Log EBC (Enterobacteriaceae; Livers, 840 ppm PAA, pH 3.4): 0.00
APC log10 reduction [3, 10]: 1.1
APC log10 reduction [3, 11]: 1.1
APC log10 reduction [3, 12]: 1.7
APC log10 reduction [3, 13]: 1.1
APC log10 reduction [3, 14]: 0.9
APC log10 reduction [3, 15]: 1.2
ECC log10 reduction [4, 10]: 1.1
ECC log10 reduction [4, 11]: 3.1
ECC log10 reduction [4, 12]: 3.1
ECC log10 reduction [4, 13]: 0.8
ECC log10 reduction [4, 14]: 0.5
ECC log10 reduction [4, 15]: 1.1
APC log10 reduction ([5]; additive Citric acid, 2%, pH 7.5 (sodium carbonate), treatment time 10 minutes): 1.8
APC log10 reduction ([5]; additive Lactic acid, 2%, pH 7.5 (sodium carbonate), treatment time 10 minutes): 1.8
APC log10 reduction ([5]; no additive, pH 4.1, treatment time 10 minutes): 2.2
APC log10 reduction ([5]; no additive, pH 7.5 (adjusted with sodium carbonate), treatment time 10 minutes): 3.0

SMILES: CCC(=O)O [Propionic, propionic acid]
Average Log10 reduction ([7]; Propionic 0.5%, alkaline modifier Na2CO3•1.5H2O2, pH 7.5): 7.07
Average Log10 reduction ([7]; Propionic 0.5%, no alkaline modifier, pH 3.1): 2.15
kill of Salmonella [7]: virtually complete kill

SMILES: O=C(O)CO [Glycolic, glycolic acid]
pH after 1 hour [6, 20]: 6.8
pH initial [6, 20]: 6.7
pH after 1 hour [6, 21]: 7.5
pH initial [6, 21]: 9.0
pH after 1 hour [6, 22]: 4.5
pH initial [6, 22]: 3.6

Second part, led by results:

pH after 1 hour [6, 16]: 7.5
pH initial [6, 16]: 7.5
pH after 1 hour [6, 17]: 8.5
pH initial [6, 17]: 8.5
SMILES: O=C(O)CC(O)(CC(=O)O)C(=O)O [Citric, citric acid]
Average Log10 reduction ([7]; Citric 0.5%, alkaline modifier Na2CO3•1.5H2O2, pH 7.5): 7.09
Average Log10 reduction ([7]; Citric 0.5%, no alkaline modifier, pH 2.4): 3.83
kill of Salmonella [7]: virtually complete kill

effect of alkaline modifier on concentration of both PAA and hydrogen peroxide [1]: relatively rapid decrease
PAA, ppm Initial ([1]; additive Na5P3O10 125 ppm, higher PAA level): 30.1 ppm
H2O2, ppm in 1 hour [1, 18]: 1.4 ppm
PAA, ppm in 1 hour [1, 18]: 4.0 ppm
H2O2, ppm Initial [1, 18]: 6.5 ppm
H2O2, ppm in 1 hour [1, 19]: 4.8 ppm
PAA, ppm in 1 hour [1, 19]: 8.6 ppm
H2O2, ppm Initial [1, 19]: 20.1 ppm
PAA, ppm Initial ([1]; additive Na5P3O10 125 ppm, lower PAA level): 10.4 ppm
SMILES: O=P(O)(O)OP(=O)(O)OP(=O)(O)O [Na5P3O10, sodium tripolyphosphate, reference compound]

effect of alkaline modifier on concentration of both PAA and hydrogen peroxide [1]: remained relatively stable
H2O2, ppm in 1 hour ([1]; additive NaHCO3 125 ppm): 6.3 ppm
PAA, ppm in 1 hour ([1]; additive NaHCO3 125 ppm): 8.5 ppm
H2O2, ppm Initial ([1]; additive NaHCO3 125 ppm): 6.5 ppm
PAA, ppm Initial ([1]; additive NaHCO3 125 ppm): 10.4 ppm
H2O2, ppm in 1 hour ([1]; additive NaHCO3 250 ppm): 18.9 ppm
PAA, ppm in 1 hour ([1]; additive NaHCO3 250 ppm): 29.6 ppm
H2O2, ppm Initial ([1]; additive NaHCO3 250 ppm): 19.9 ppm
PAA, ppm Initial ([1]; additive NaHCO3 250 ppm): 30.3 ppm
H2O2, ppm in 1 hour ([1]; additive NaHCO3 275 ppm): 11 ppm
PAA, ppm in 1 hour ([1]; additive NaHCO3 275 ppm): 23 ppm
H2O2, ppm Initial ([1]; additive NaHCO3 275 ppm): 11 ppm
PAA, ppm Initial ([1]; additive NaHCO3 275 ppm): 25 ppm
SMILES: O=C([O-])O.[Na+] [NaHCO3, sodium bicarbonate]

effect of alkaline modifier on concentration of both PAA and hydrogen peroxide [1]: relatively rapid decrease
H2O2, ppm in 1 hour ([1]; additive NaOH 100 ppm): 4 ppm
PAA, ppm in 1 hour ([1]; additive NaOH 100 ppm): 8 ppm
H2O2, ppm Initial ([1]; additive NaOH 100 ppm): 11 ppm
PAA, ppm Initial ([1]; additive NaOH 100 ppm): 25 ppm
SMILES: [Na+].[OH-] [NaOH, sodium hydroxide, reference compound]
